According to paper PMC4503722, “Novel Phenotypic Outcomes Identified for a Public Collection of Approved Drugs from a Publicly Accessible Panel of Assays” (PLoS ONE, 2015):
Where two headings read alike, the source gives them in different places.

What was measured:
Experiment in all cases: cells
NCI-H716 cells = format: cell-based, Human
Colo320 = format: cell-based; details: Homo sapiens, COLO 320; read-out: Basal_Viability ATP Colo 320
DLD-1 = format: cell-based
INS-1E cells = format: cell-based, rat
SW480 = format: cell-based
[1] = test system: endothelial tube formation in co-cultures of ECFCs and ADSCs treated with VEGF; format: cell-based, human
RKO = format: cell-based; details: Homo sapiens, RKO; read-out: Basal_Viability ATP RKO
HeLa cells = format: cell-based; details: for EC50: read-out: CellCycle G2/M
[2] = test system: nuclear β-catenin in C2C12 cells; format: cell-based
[3] = test system: HCT116 cells treated with a GSK3β inhibitor; format: cell-based
HCT116 = format: cell-based
SNU-C1 = format: cell-based; details: Homo sapiens
HT-29 = format: cell-based; details: Homo sapiens, HT-29; read-out: Basal_Viability ATP HT-29
[4] = Homo sapiens, IC50 / EC50, NCI-H716, read-out: GLP 1 Secretion
[5] = Rattus norvegicus, IC50 / EC50, INS-1E, read-out: Insulin Secretion
[6] = Homo sapiens, IC50 / EC50, endothelial tube area, ADSC/ECFC co-culture, read-out: Anti-Angiogenesis
[7] = Homo sapiens, DLD-1, basal, DLD-1, read-out: Basal_Viability ATP DLD-1
[8] = Homo sapiens, SW480, basal, SW480, read-out: Basal_Viability ATP SW480
[9] = Homo sapiens, read-out: Anti-Angiogenesis
[10] = Homo sapiens, HeLa, S2 Table, HeLa, 20 = no response at highest concentration
[11] = Homo sapiens, HCT-116, HCT116 pretreated with GSK3b inhibitor, read-out: GSK3b inh pretreated_Viability ATP HCT116
[12] = Homo sapiens, NCI-H716, read-out: GLP1 sec. EC50
[13] = Homo sapiens, DLD-1, 72 h, Table 2, 72 h, Cell TiterGlo, non-adherent, 20 coded, read-out: DLD-1 viab. IC50
[14] = Rattus norvegicus, INS-1E, read-out: Ins. sec. EC50
[15] = Homo sapiens, read-out: Anti-Angio IC50

COc1cccc2c1C(=O)c1c(O)c3c(c(O)c1C2=O)C[C@@](O)(C(=O)CO)C[C@@H]3O[C@H]1C[C@H](N2CCO[C@H](OC)C2)[C@H](O)[C@H](C)O1 [nemorubicin] was tested, and the EC50 (NCI-H716 cells; [4]) was > 10 µM, the IC50 (Colo320) was 0.001 µM and the IC50 (DLD-1; Homo sapiens, DLD-1, read-out: Basal_Viability ATP DLD-1) was 0.001 µM. For the same compound, the EC50 (INS-1E cells; [5]) was > 10 µM, the IC50 (SW480; Homo sapiens, SW480, read-out: Basal_Viability ATP SW480) was 0.001 µM and the IC50 [1, 6] was 0.003 µM. The IC50 (RKO) was 0.001 µM, the EC50 (HeLa cells; Homo sapiens, IC50 / EC50, HeLa) was > 10 µM and the EC50 ([2]; Mus musculus, IC50 / EC50, C2C12 beta-catenin translocation, read-out: Wnt Pathway) was 0.0135 µM. It also gave an IC50 ([3]; Homo sapiens, HCT-116, GSK3b inhibitor pretreated, read-out: GSK3b inh pretreated_Viability ATP HCT116) of 0.001 µM.

With CCOc1ccc2nc3cc(N)ccc3c(N)c2c1 [Acrinol] the EC50 (NCI-H716 cells; read-out: GLP 1 Secretion) was > 10 µM, the IC50 (DLD-1; read-out: Basal_Viability ATP DLD-1) was > 20 µM and the EC50 (INS-1E cells; read-out: Insulin Secretion) was > 10 µM. For the same compound, the IC50 (HCT116; read-out: Basal_Viability ATP HCT116) was 15.7 µM, the IC50 (SW480; read-out: Basal_Viability ATP SW480) was 3.23 µM and the IC50 ([1]; read-out: Anti-Angiogenesis) was 4.94 µM. For the same compound, the EC50 (HeLa cells) was > 10 µM, the EC50 ([2]; read-out: Wnt Pathway) was > 10 µM and the IC50 ([3]; read-out: GSK3b inh pretreated_Viability ATP HCT116) was 5.92 µM.

In the case of CC(C)=CCNc1ncnc2c1ncn2[C@@H]1O[C@H](CO)[C@@H](O)[C@H]1O [Riboprine], the EC50 (NCI-H716 cells; [4]) is reported as > 10 µM, the IC50 (SNU-C1; SNU-C1, read-out: Basal_Viability ATP SNU-C1) is reported as 9.01 µM and the EC50 (INS-1E cells; [5]) is reported as > 10 µM. The IC50 [1, 6] was 2.66 µM, the EC50 (HeLa cells; Homo sapiens, HeLa, IC50 / EC50, HeLa) was > 10 µM and the EC50 ([2]; Mus musculus, C2C12, IC50 / EC50, C2C12 beta-catenin translocation, read-out: Wnt Pathway) was > 10 µM. For the same compound, the IC50 (HT-29) was > 20 µM.

With CCCCCCCCCCCCCCCC[N+](C)(C)CCN(Cc1ccc(OC)cc1)c1ncccn1 [Tonzonium bromide] the EC50 (NCI-H716 cells; Homo sapiens, NCI-H716, read-out: GLP 1 Secretion) was 17.8 µM, the IC50 (DLD-1; [7]) was 4.05 µM and the EC50 (INS-1E cells; Rattus norvegicus, INS-1E, read-out: Insulin Secretion) was > 10 µM. For the same compound, the IC50 (HCT116; Homo sapiens, HCT-116, basal, HCT116, read-out: Basal_Viability ATP HCT116) was 3.41 µM, the IC50 (SW480; [8]) was 5.08 µM and the IC50 [1, 9] was 3.07 µM. The EC50 (HeLa cells; [10]) was > 10 µM, the EC50 ([2]; Mus musculus, C2C12, S2 Table, module primary assay, 20 / 20.1 codes per legend, read-out: Wnt Pathway) was > 10 µM and the IC50 [3, 11] was 5.31 µM.

In the case of Clc1ccc(Nc2nnc(Cc3ccncc3)c3ccccc23)cc1 [vatalanib, reference compound], the EC50 (NCI-H716 cells; [12]) is reported as > 10 µM, the IC50 (DLD-1; [13]) is reported as > 20 µM and the EC50 (INS-1E cells; [14]) is reported as > 10 µM. For the same compound, the IC50 (HCT116; Homo sapiens, HCT-116, 72 h, read-out: HCT-116 viab. IC50, Table 2, basal, 72 h, Cell TiterGlo, non-adherent, 20 coded) was > 20 µM, the IC50 (SW480; Homo sapiens, SW480, 72 h, Table 2, 72 h, Cell TiterGlo, non-adherent, 20 coded, read-out: SW480 viab. IC50) was 19.5 µM and the IC50 (SW480; [8]) was 19.5 µM. The IC50 [1, 15] was 0.11 µM, the IC50 [1, 9] was 0.111 µM and the “G2/M IC50 / EC50” value (HeLa cells) was 20 (values shown as 20 indicate that the compound was tested in concentration-response and showed no response at the highest concentration tested (e.g. IC50 > 20 μM)). For the same compound, the EC50 (HeLa cells; [10]) was > 10 µM, the “activity in the Wnt potentiation module (in words)” value [2] was “None of these agents, however, possessed appreciable activity” and the EC50 ([2]; Mus musculus, C2C12, Table 2, C2C12, […], 20 / 20.1 coded, read-out: Wnt pot. EC50) was > 10 µM. The IC50 ([3]; Homo sapiens, HCT-116, read-out: HCT-116 (GSK3β) viab. IC50, Table 2, GSK3β inhibitor LY2090314 20 nM, 72 h, Cell TiterGlo, 20 coded) was 10.5 µM and the IC50 [3, 11] was 10.5 µM.

CN(Cc1cnc2nc(N)nc(N)c2n1)c1ccc(C(=O)N[C@@H](CCC(=O)O)C(=O)O)cc1 [methotrexate, reference compound] was tested, and the EC50 (NCI-H716 cells; [12]) was > 10 µM, the IC50 (DLD-1; [13]) was 0.7 µM and the IC50 (DLD-1; [7]) was 0.704 µM. The IC50 (SNU-C1; SNU-C1, 72 h, Table 2, 72 h, Cell TiterGlo, non-adherent, 20 coded, read-out: SNU-C1 viab. IC50) was > 20 µM, the EC50 (INS-1E cells; [14]) was > 10 µM and the IC50 [1, 15] was > 10 µM. The EC50 (HeLa cells; [10]) was > 10 µM, the EC50 ([2]; Mus musculus, C2C12, read-out: Wnt Pathway) was 0.0116 µM and the EC50 ([2]; Mus musculus, C2C12, read-out: Wnt pot. EC50) was 0.012 µM.
